Experimental findings from article PMC4111740, “Ligand-Based Pharmacophore Modeling and Virtual Screening for the Discovery of Novel 17β-Hydroxysteroid Dehydrogenase 2 Inhibitors” (Journal of Medicinal Chemistry, 2014) are described below.

For one test, the target named is T1, 11β-HSD1 (Homo sapiens, UniProt P28845).
T1 construct: expressed in transfected cells
The test is described as follows: 11β-HSD1 activity in lysates of stably transfected cells. The settings on record: for 11β-HSD1 versus 17β-HSD2 potency (in words): lysates. The class given is biochemical. On the procedure:
The methods to determine 11β-HSD1 and -2 activity were performed as described previously.[64] Briefly, lysates of stably transfected cells, expressing either 11β-HSD1 or 11β-HSD2, were incubated for 10 min at 37 °C in TS2 buffer in a final volume of 22 μL containing either solvent (0.2% DMSO) or the inhibitor at the respective concentration. The nonselective 11β-HSD inhibitor glycyrrhetinic acid was used as positive control. Activity measurements of 11β-HSD1 were performed with 190 nM unlabeled cortisone, 10 nM radiolabeled cortisone, and 500 μM NADPH. To measure 11β-HSD2 activity, lysates were incubated with 40 nM unlabeled cortisol, 10 nM radiolabeled cortisol, and 500 μM NAD^+. Reactions were stopped after 10 min by adding an excess of unlabeled cortisone and cortisol (1:1, 2 mM in methanol). The steroids were separated by TLC, followed by scintillation counting and calculation of substrate concentration. Data were collected from at least three independent measurements.

The next test has as its target T2, 17β-HSD3 (Homo sapiens, UniProt P37058).
T2 construct: expressed in transfected cells; host or cells: HEK-293 (transient, calcium phosphate), intact cells
T2 sequence (P37058 1-310): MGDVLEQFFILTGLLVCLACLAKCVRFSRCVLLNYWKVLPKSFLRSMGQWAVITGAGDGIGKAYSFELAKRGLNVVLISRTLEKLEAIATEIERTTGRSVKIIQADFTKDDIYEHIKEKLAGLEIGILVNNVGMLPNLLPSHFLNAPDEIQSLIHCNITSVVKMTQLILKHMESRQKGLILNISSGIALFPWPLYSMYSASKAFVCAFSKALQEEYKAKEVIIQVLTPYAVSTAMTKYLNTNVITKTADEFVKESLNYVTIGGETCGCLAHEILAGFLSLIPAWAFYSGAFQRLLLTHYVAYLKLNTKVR
In words: 17β-HSD3 activity in intact transfected HEK-293 cells. It counts as cell-based. The settings on record: for 17β-HSD3 intact inhibition class (n.i.): rest activity at 20 μM, Table 3. The method, then: (§1) Human embryonic kidney cells (HEK-293) were cultivated in DMEM containing 4.5 g/L glucose, 10% fetal bovine serum, 100 U/mL penicillin, 0.1 mg/mL streptomycin, 1× MEM nonessential amino acids, and 10 mM HEPES buffer, pH 7.4. The cells were incubated at 37 °C until 80% confluency. The cells were transfected using the calcium phosphate method with expression plasmids for 17β-HSD2 and 17β-HSD3. After 24 h, the cells were trypsinized and seeded on poly-L-lysine-coated 96-well plates (15 000 cells/well).
(§2) The inhibitory activities were measured 24 h after seeding as follows: old medium was aspirated and replaced by 30 μL of charcoal-treated DMEM (cDMEM). Ten microliters of inhibitor dissolved in cDMEM into the respective concentration was added, and mixtures were preincubated at 37 °C for 20 min. 17β-HSD2 inhibitory activities were measured in the presence of 190 nM unlabeled estradiol and 10 nM radiolabeled estradiol. N-(3-Methoxyphenyl)-N-methyl-5-m-tolylthiophene-2-carboxamide (compound 19 in ref ([26])) was used as positive control. The reaction mixtures were incubated for 20 min, and the reactions were stopped by adding an excess of estradiol and estrone (1:1, 2 mM in methanol) to the mixture.
17β-HSD3 inhibitory activities were measured in the presence of 190 nM unlabeled androstenedione and 10 nM radiolabeled androstenedione. Benzophenone-1 was used as positive control. The reaction mixtures were incubated for 30 min, and the reactions were stopped by adding an excess of androstenedione and testosterone (1:1, 2 mM in methanol). The steroids were separated by TLC, followed by scintillation counting and calculation of substrate concentration. Data was obtained from three independent measurements.

A further test has as its target T3, 17β-HSD1 (Homo sapiens, UniProt P14061).
T3 construct: expressed in transfected cells; host or cells: HEK-293 (transient, calcium phosphate), lysate
T3 sequence (P14061 1-328): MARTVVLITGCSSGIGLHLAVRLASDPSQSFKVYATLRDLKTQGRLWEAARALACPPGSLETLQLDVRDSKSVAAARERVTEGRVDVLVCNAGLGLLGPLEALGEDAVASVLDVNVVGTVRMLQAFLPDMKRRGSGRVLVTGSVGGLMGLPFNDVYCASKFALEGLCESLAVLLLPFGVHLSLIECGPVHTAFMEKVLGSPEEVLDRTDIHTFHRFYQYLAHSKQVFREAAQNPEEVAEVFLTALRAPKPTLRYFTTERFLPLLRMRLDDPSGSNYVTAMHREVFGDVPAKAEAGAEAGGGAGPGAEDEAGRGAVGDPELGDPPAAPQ
In words: 17β-HSD1 activity in HEK-293 cell lysates. It counts as biochemical. The settings on record: ratio of IC50 values. On the procedure: HEK-293 cells were transfected by the calcium phosphate precipitation method with plasmids for human 17β-HSD1, 17β-HSD2, or 11β-HSD2. Cells were cultivated for 48 h, washed with phosphate-buffered saline, and centrifuged for 4 min at 150g. After removal of the supernatants, cell pellets were snap frozen in dry ice and stored at −80 °C until further use.
Lysates of human embryonic kidney cells (HEK-293) expressing either 17β-HSD1 or 17β-HSD2 were incubated for 10 min at 37 °C in TS2 buffer in a final volume of 22 μL containing either solvent (0.2% DMSO/chloroform) or the inhibitor at the respective concentration. N-(3-Methoxyphenyl)-N-methyl-5-m-tolylthiophene-2-carboxamide (compound 19 in ref ([26])) and apigenin[50] were used as positive controls for 17β-HSD1 and 17β-HSD2, respectively, in all experiments. 17β-HSD1 activity was measured in the presence of 190 nM unlabeled estrone, 10 nM radiolabeled estrone, and 500 μM NADPH. In contrast, 17β-HSD2 activity was determined in the presence of 190 nM unlabeled estradiol, 10 nM radiolabeled estradiol, and 500 μM NAD^+. Reactions were stopped after 10 min by adding an excess of unlabeled estradiol and estrone (1:1, 2 mM in methanol). Possible promiscuous enzyme inhibition by aggregate formation of the chemicals was excluded by measuring the inhibition of the enzyme activity by the compounds in the presence of 0.1% Triton X-100.[36] […]

A further test deals with T4, 17β-HSD2 (Homo sapiens, UniProt P37059).
T4 construct: expressed in transfected cells; host or cells: HEK-293 (transient, calcium phosphate), lysate
T4 sequence (P37059 1-387): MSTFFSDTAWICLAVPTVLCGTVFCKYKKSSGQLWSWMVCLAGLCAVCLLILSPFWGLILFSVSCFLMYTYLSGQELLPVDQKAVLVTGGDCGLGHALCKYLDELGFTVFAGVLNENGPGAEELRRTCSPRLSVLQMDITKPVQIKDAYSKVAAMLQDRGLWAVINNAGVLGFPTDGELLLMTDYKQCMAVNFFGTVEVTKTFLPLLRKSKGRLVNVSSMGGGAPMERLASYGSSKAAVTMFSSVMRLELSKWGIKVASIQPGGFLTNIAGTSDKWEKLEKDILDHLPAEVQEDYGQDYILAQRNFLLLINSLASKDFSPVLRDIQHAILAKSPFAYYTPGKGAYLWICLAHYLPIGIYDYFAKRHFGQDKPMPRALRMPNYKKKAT
In words: 17β-HSD2 activity in intact transfected HEK-293 cells. The class given is cell-based. The following applies: intact HEK-293 cells. On the procedure:
as §1, §2

Entries after “also recorded” stand apart in the source; their conditions may differ.

T1 sequence (P28845 whole entry): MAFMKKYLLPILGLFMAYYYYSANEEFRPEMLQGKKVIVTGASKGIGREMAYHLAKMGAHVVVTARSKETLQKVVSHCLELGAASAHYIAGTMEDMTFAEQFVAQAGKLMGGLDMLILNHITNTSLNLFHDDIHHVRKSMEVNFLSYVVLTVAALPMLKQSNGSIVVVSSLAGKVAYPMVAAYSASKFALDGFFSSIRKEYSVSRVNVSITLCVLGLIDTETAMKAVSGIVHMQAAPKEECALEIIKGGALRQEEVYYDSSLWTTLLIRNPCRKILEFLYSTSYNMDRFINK

On to `COc1ccc(S(=O)(=O)Nc2cccc(O)c2)c2c1CCCC2` [Compound 23], for which the “11β-HSD1 versus 17β-HSD2 potency (in words)” value on 11β-HSD1 is “almost equipotent toward 17β-HSD2 and 11β-HSD1; also recorded: equipotent 17β-HSD2 and 11β-HSD1 inhibitors”. The “17β-HSD3 intact inhibition class (n.i.)” value at 17β-HSD3 is recorded as “n.i”.

With `Cc1cc(S(=O)(=O)Nc2cccc(O)c2)c(C)cc1Cl` [Compound 22], the “selectivity: more active toward 17β-HSD2 than 17β-HSD1” value on 17β-HSD1 is recorded as 18 fold. The “17β-HSD3 inhibition (in words)” value on 17β-HSD3 (intact cells) is reported as “weak 17β-HSD3 inhibitors”.

For `COc1ccc(S(=O)(=O)Nc2ccc(O)c3c2CCCC3)cc1` [Compound 20], the “11β-HSD1 versus 17β-HSD2 potency (in words)” value on 11β-HSD1 was “almost equipotent toward 17β-HSD2 and 11β-HSD1; also recorded: equipotent 17β-HSD2 and 11β-HSD1 inhibitors”. In addition, the “17β-HSD3 intact inhibition class (n.i.)” value on 17β-HSD3 is listed as “n.i”.

With `CC(C)(C)c1ccc(S(=O)(=O)Oc2ccccc2O)cc1` [Compound 12], the “17β-HSD2 inhibition in intact cells (in words)” value on 17β-HSD2 is recorded as “concentration-dependently inhibited 17β-HSD2”. In addition, on 11β-HSD1 (ratio of IC50 values), the “selectivity 11β-HSD1 against 17β-HSD2” value worked out at 9 fold. For the same compound, at 17β-HSD3 (ratio of IC50 values), the “selectivity 17β-HSD3 against 17β-HSD2” value was determined as 35 fold.
